Test results reported in US7217730B2, “Method for the use of pyranoindole derivatives to treat infection with Hepatitis C virus” (Wyeth, priority 2002, dated 2007).

Biological target: T1, NS5B from the BK strain (genotype 1b) (Hepatitis C virus genotype 1b, UniProt P26663)
T1 construct: NS5B from the BK strain (genotype 1b) is expressed in E. coli as a protein in which the 21 C-terminal amino acids are replaced; made in house; host or cells: E. coli
Test: Hepatitis C polymerase inhibition, NS5B BK strain, 33P-GTP filter assay
Format: biochemical
Conditions: Table 1A; for IC50: NS5B BK strain, read-out: HCV pol BK IC50; for inhibition at 20 µM: 20 μM compound, read-out: HCV pol % inh at 20 μM
Source text: The ability of the compounds of the present invention to inhibit Hepatitis C Polymerase was established by the following experimental procedure: • NS5B from the BK strain (genotype 1b) is expressed in E. coli as a protein in which the 21 C-terminal amino acids are replaced with a short linker and a hexahistidine tag ([…]). The purified protein is mixed with radioactive nucleotides and allowed to replicate a heteropolymeric RNA substrate, primed by an endogenous short hairpin, resulting in an approximately 760 nt product. The radioactive product is captured on a filter and quantitated after removal of the unincorporated nucleotides.
Reagents: • 10 mM uridine 5′-triphosphate (UTP) (Promega # p116B) • 10 mM adenine 5′-triphosphate (ATP) (Promega # p113B) • 10 mM cytidine 5′-triphosphate (CTP) (Promega # p114B) • 10 mM guanine 5′-triphosphate (GTP) (Promega # p115B) • Bovine Serum Albumin (BSA) 10 mg/ml NEB (100× at 10 mg/ml) #007-BSA • RNasein (Promega #N251X) 40 U/μl • A-[33P]-GTP (NEN-easytides NEG/606H 3000 Ci/mmol, 370 MBq/ml, 10 mCi/ml) • Falcon polypropylene 96 well plates (Becton Dickinson # 351190) • Millipore Multiscreen assasy system-96 well-filtration plate #MADE NOB 50 • Optiphase Supermix (Wallac) formulated by Fisher • Millipore Multiscreen liner for use in microbeta 1450-106 casette [(Wallac) Perkin Elmer #1450-433] • 1 M(N-[2-hydroxyethyl]piperazine-N′-[2-ethanesulfonic acid]) (HEPES), pH 7.3 • Amersham Pharmacia Biotec (US16924-500 ml) • 1 M MgCl2 (SIGMA #M1028) • Dithiothreitol (DTT) (solid) (SIGMA #D9779) • RNase free water (GIBCO-BRL #10977-023) • Dimethyl sulfoxide (Aldrich #27685-5) • Basilen Blue (Sigma, B5520) • 0.5M ethylenediaminetetraacetic acid (EDTA), pH 8 (GIBCO-BRL #15575-020) • Dibasic sodium phosphate (7-hydrate) (Na2HPO4.7H2O; Baker#3824-07) • Phosphoric acid (Baker, #0262.02)
Further reagent preparation: • 0.5 M Na Phosphate buffer. Per liter, weigh 134 gr Na2HPO4.7H2O, add water to 900 ml. Adjust pH to 7.0 with phosphoric acid. Top off with water to 1 L. • Dilute nucleotides 1:1000 to 10 μM (GTP and CTP) or 1:100 to 100 μM (ATP and UTP) into RNase free water.
Procedure: • (1) Compounds 10 μl at 10 μg/ml in 15% dimethylsulfoxide (DMSO)
When starting from 100 μg/ml compound stock in […]: • Dispense 5 μl 30% DMSO per well • Dispense 5 μl compound (100 μg/ml) per well.
When starting from 50 μg/ml compound stock in 15% DMSO: • Add 10 μl compound per well. • (2) Enzyme Mix:
Add 20 μl enzyme mix into each well of the assay plate. Incubate compound and enzyme at room temperature for 15 minutes • (3) Template mix—prepare ahead
Spin down a tube of RNA (5 μg/tube stored in 75% ethanol and 0.3 M sodium acetate) in a microcentrifuge for 20 minutes at 4° C. One tube is enough for 1–1.5 plates. Remove as much ethanol from the tube as possible by inverting the tube. Be gentle, pellet RNA may not adhere to the tube. Vacuum dry the RNA. Resuspend the RNA by adding 1 ml of DEPC water, close the cap of the tube tightly. To dissolve RNA, incubate RNA solution on ice for ˜60 minutes and gently vortex. Spin briefly to ensure all RNA solution is down to the bottom of the tube before opening cap. Gently transfer RNA solution into a 5 ml or larger tube. Add another 3 ml of DEPC water (total 4 ml of volume).
Add the following volumes of reagents
Add 20 μl template mix per reaction (i.e. 20 ng of pOF per reaction or ˜3 nM) • (4) Incubate reaction at room temperature (22–25° C.) for 2 hours. • (5) Stop reaction by adding 50 μl of 170 mM EDTA. • Final concentration of EDTA is 85 mM. • (6) Prewet filters of Millipore multiscreen assay plate by adding 200 μl of 0.5 M sodium phosphate buffer, pH 7.0 into each well. Let stand at room temperature for 2–3 minutes. • (7) Place the multiscreen filter plate onto a Millipore Manifold and turn on vacuum to allow buffer to flow through. Turn off vacuum. Transfer 80 μl of the reaction product into each well of the filter plate. Let stand for 2–3 minutes. […]

T1 sequence (P26663 2420-2989): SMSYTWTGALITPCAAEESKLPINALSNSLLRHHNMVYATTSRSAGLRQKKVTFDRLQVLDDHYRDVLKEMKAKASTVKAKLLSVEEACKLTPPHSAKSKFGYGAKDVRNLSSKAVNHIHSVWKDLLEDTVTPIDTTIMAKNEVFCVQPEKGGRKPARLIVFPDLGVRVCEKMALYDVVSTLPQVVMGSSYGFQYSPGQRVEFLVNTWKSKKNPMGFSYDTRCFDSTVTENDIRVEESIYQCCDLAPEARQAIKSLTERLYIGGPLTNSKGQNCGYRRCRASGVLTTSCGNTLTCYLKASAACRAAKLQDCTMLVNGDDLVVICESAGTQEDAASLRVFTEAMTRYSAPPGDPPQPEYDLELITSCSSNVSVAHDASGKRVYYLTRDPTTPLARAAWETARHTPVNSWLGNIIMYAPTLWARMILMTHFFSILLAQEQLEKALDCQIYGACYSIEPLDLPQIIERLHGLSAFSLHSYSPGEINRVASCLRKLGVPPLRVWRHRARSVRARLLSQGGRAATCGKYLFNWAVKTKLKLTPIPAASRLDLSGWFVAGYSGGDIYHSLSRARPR

Row | SMILES | IC50 [µM] | inhibition at 20 µM [%]
1 | CCCC1(CC(=O)O)OCCc2c1[nH]c1c(C)ccc(C#N)c21 (stereo not drawn) [Example 1, (5-cyano-8-methyl-1-propyl-1,3,4,9-tetrahydro-pyrano[3,4-b]indol-1-yl)acetic acid] | 0.5 | –
2 | CCC[C@@]1(CC(=O)O)OCCc2c1[nH]c1c(C)ccc(C#N)c21 [Example 3, [(S)-5-cyano-8-methyl-1-propyl-1,3,4,9-tetrahydropyrano[3,4-b]indol-1-yl]acetic acid] | 2.4 | –
3 | CCCC1(CC(=O)O)OCCc2c1[nH]c1c(F)ccc(C#N)c21 (stereo not drawn) [Example 4, (5-cyano-8-fluoro-1-propyl-1,3,4,9-tetrahydro-pyrano[3,4-b]indol-1-yl)acetic acid] | 1 | –
4 | CCC[C@@]1(CC(=O)O)OCCc2c1[nH]c1c(F)ccc(C#N)c21 [Example 6, [(S)-5-cyano-8-fluoro-1-propyl-1,3,4,9-tetrahydropyrano[3,4-b]indol-1-yl]acetic acid] | 5.7 | –
5 | CCCC1(CC(=O)O)OCCc2c1[nH]c1c(Cl)ccc(Cl)c21 (stereo not drawn) [Example 7, (5,8-dichloro-1-propyl-1,3,4,9-tetrahydro-pyrano[3,4-b]indol-1-yl)acetic acid] | 0.2 | –
6 | CCC[C@@]1(CC(=O)O)OCCc2c1[nH]c1c(Cl)ccc(Cl)c21 [Example 9, [(S)-5,8-dichloro-1-propyl-1,3,4,9-tetrahydropyrano[3,4-b]indol-1-yl]acetic acid] | 1.1 | –
7 | CCCC1(CC(=O)O)OCCc2c1[nH]c1c(C)cc(F)c(C#N)c21 (stereo not drawn) [Example 10, (5-cyano-6-fluoro-8-methyl-1-propyl-1,3,4,9-tetrahydropyrano[3,4-b]indol-1-yl)acetic acid] | 0.08 | –
8 | CCC[C@@]1(CC(=O)O)OCCc2c1[nH]c1c(C)cc(F)c(C#N)c21 [Example 12, [(S)-5-cyano-6-fluoro-8-methyl-1-propyl-1,3,4,9-tetrahydropyrano[3,4-b]indol-1-yl]acetic acid] | 0.6 | –
9 | CCC1(CC(=O)O)OCCc2c1[nH]c1cccc(Cl)c21 (stereo not drawn) [Example 13, (5-Chloro-1-ethyl-1,3,4,9-tetrahydropyrano[3,4-b]indol-1-yl)acetic acid] | > 20 | 23
10 | CCCC1(CC(=O)O)OCCc2c1[nH]c1cccc(Cl)c21 (stereo not drawn) [Example 14, (5-Chloro-1-propyl-1,3,4,9-tetrahydropyrano[3,4-b]indol-1-yl)acetic acid] | 11 | 75
11 | CC(C)C1(CC(=O)O)OCCc2c1[nH]c1cccc(Cl)c21 (stereo not drawn) [Example 15, (5-chloro-1-isopropyl-1,3,4,9-tetrahydropyrano[3,4-b]indol-1-yl)acetic acid] | > 20 | 7
12 | C/C=C/CCC1(CC(=O)O)OCCc2c1[nH]c1cccc(Cl)c21 (stereo not drawn) [Example 16, {5-chloro-1-[(3E)-pent-3-enyl]-1,3,4,9-tetrahydropyrano[3,4-b]indol-1-yl}acetic acid] | > 20 | < 5
13 | O=C(O)CC1(c2ccccc2)OCCc2c1[nH]c1cccc(Cl)c21 (stereo not drawn) [Example 17, (5-chloro-1-phenyl-1,3,4,9-tetrahydropyrano[3,4-b]indol-1-yl)acetic acid] | > 20 | < 5
14 | O=C(O)CC1(c2ccc([N+](=O)[O-])cc2)OCCc2c1[nH]c1cccc(Cl)c21 (stereo not drawn) [Example 18, [5-chloro-1-(4-nitrophenyl)-1,3,4,9-tetrahydropyrano[3,4-b]indol-1-yl]acetic acid] | > 20 | < 5
15 | O=C(O)CC1(c2cccc([N+](=O)[O-])c2)OCCc2c1[nH]c1cccc(Cl)c21 (stereo not drawn) [Example 19, [5-chloro-1-(3-nitrophenyl)-1,3,4,9-tetrahydropyrano[3,4-b]indol-1-yl]acetic acid] | > 20 | 6
16 | O=C(O)CC1(c2ccccc2F)OCCc2c1[nH]c1cccc(Cl)c21 (stereo not drawn) [Example 20, [5-chloro-1-(2-fluorophenyl)-1,3,4,9-tetrahydropyrano[3,4-b]indol-1-yl]acetic acid] | > 20 | 21
17 | CCC1(CC(=O)O)OCCc2c1[nH]c1cccc(Br)c21 (stereo not drawn) [Example 21, (5-bromo-1-ethyl-1,3,4,9-tetrahydro-pyrano[3,4-b]indol-1-yl)acetic acid] | > 20 | 58
18 | CCCC1(CC(=O)O)OCCc2c1[nH]c1cccc(Br)c21 (stereo not drawn) [Example 22, (5-bromo-1-propyl-1,3,4,9-tetrahydropyrano[3,4-b]indol-1-yl)acetic acid] | – | 70
19 | CC(C)C1(CC(=O)O)OCCc2c1[nH]c1cccc(Br)c21 (stereo not drawn) [Example 23, (5-bromo-1-isopropyl-1,3,4,9-tetrahydropyrano[3,4-b]indol-1-yl)acetic acid] | > 20 | 12
20 | C/C=C/CCC1(CC(=O)O)OCCc2c1[nH]c1cccc(Br)c21 (stereo not drawn) [Example 24, {5-bromo-1-[(3E)-pent-3-enyl]-1,3,4,9-tetrahydropyrano[3,4-b]indol-1-yl}acetic acid] | > 20 | < 5
21 | O=C(O)CC1(c2ccoc2)OCCc2c1[nH]c1cccc(Br)c21 (stereo not drawn) [Example 25, [5-bromo-1-(3-furyl)-1,3,4,9-tetrahydropyrano[3,4-b]indol-1-yl]acetic acid] | > 20 | 33
22 | O=C(O)CC1(c2ccccc2)OCCc2c1[nH]c1cccc(Br)c21 (stereo not drawn) [Example 26, (5-bromo-1-phenyl-1,3,4,9-tetrahydropyrano[3,4-b]indol-1-yl)acetic acid] | > 20 | < 5
23 | COc1cc(C2(CC(=O)O)OCCc3c2[nH]c2cccc(Br)c32)cc(OC)c1OC (stereo not drawn) [Example 27, [5-bromo-1-(3,4,5-trimethoxyphenyl)-1,3,4,9-tetrahydropyrano[3,4-b]indol-1-yl]acetic acid] | > 20 | 3
24 | O=C(O)CC1(c2ccc([N+](=O)[O-])cc2)OCCc2c1[nH]c1cccc(Br)c21 (stereo not drawn) [Example 28, [5-bromo-1-(4-nitrophenyl)-1,3,4,9-tetrahydropyrano[3,4-b]indol-1-yl]acetic acid] | > 20 | < 5
25 | O=C(O)CC1(c2cccc([N+](=O)[O-])c2)OCCc2c1[nH]c1cccc(Br)c21 (stereo not drawn) [Example 29, [5-bromo-1-(3-nitrophenyl)-1,3,4,9-tetrahydropyrano[3,4-b]indol-1-yl]acetic acid] | > 20 | < 5
26 | O=C(O)CC1(c2ccccc2F)OCCc2c1[nH]c1cccc(Br)c21 (stereo not drawn) [Example 30, [5-bromo-1-(2-fluorophenyl)-1,3,4,9-tetrahydropyrano[3,4-b]indol-1-yl]acetic acid] | > 20 | < 5
27 | CCCC1(CC(=O)O)OCCc2c1[nH]c1cccc(-c3ccccc3)c21 (stereo not drawn) [Example 31, (5-phenyl-1-propyl-1,3,4,9-tetrahydropyrano[3,4-b]indol-1-yl)acetic acid] | > 20 | 12
